Data on seven molecules can be found in article PMC6010131, “Antileishmanial activity of sulphonamide nanoemulsions targeting the β-carbonic anhydrase from Leishmania species” (Journal of Enzyme Inhibition and Medicinal Chemistry, 2018).

In brackets after ≈: the same amount, converted by molar mass. Marks after values point to notes of the source that are not given here.

One series deals with Human erythrocytes. In words: Haemolytic assay. The conditions noted are these: human erythrocytes, 1 h, 37 °C. The class given is cell-based. Here is the method:
(§1) Haemolytic activity was evaluated as described previously by Ishnava and Shah with a slight modification. Human erythrocytes from healthy individuals were collected in vacuum tubes containing EDTA as anti-coagulant. The erythrocytes were harvested by centrifugation for 10 m at 2500 rpm at 20 °C, and washed three times in PBS. To the pellet, PBS was added to yield a 10% (v/v) erythrocytes/PBS suspension. The 10% suspension was then diluted 1:10 in PBS. Aliquots of 100 µl of erythrocytes suspension was added, in triplicate, to 100 µl of a two-fold dilution series of sulphonamides NEs and amphotericin B (at concentrations of 128, 64, 32, 16, 8, 4, 2, and 1 µM, respectively, in the same buffer) in microtubes. Negative and positive controls were performed by replacing drug dilution with PBS or with 200 µl of […] for the total haemolysis, respectively. The tubes were incubated for 1 h at 37 °C and then centrifuged for 10 min at 2000 rpm at 20 °C. From the supernatant fluid, 150 µl was transferred to a flat-bottomed microtiter plate, and the absorbance was measured spectrophotometrically at 540 nm. Five concentrations are required for HC50 calculation. The following formula was used to find out the percentage of haemolytic activity: [A540 treated sample − A540 of buffer)/(A540 of Triton X-100 − A540 of buffer)] × 100.

The nature of a further series: Haemolytic assay. The series is classed as cell-based, Human. The conditions noted are these: human, human erythrocytes (suspension in PBS), read-out: Haemolysis (%). Here is the method:
as §1

For the next series, the system named is L. donovani. The arrangement: method as in PMID 25825339. The conditions noted are these: against L. donovani; cited from earlier work.
The nature of the next series: Cytotoxic assay (MTT). The series is classed as cell-based. The conditions noted are these: mouse, RAW 264.7 macrophages. The method, then: RAW 264.7 macrophages were obtained from the National Institute of Metrology, Quality and Technology (Inmetro, Rio de Janeiro, Brazil) and maintained in DMEM medium supplemented with 10% FBS at 37 °C in a 5% controlled CO2 atmosphere. Cell maintenance was performed every 48–72 h, time necessary for cells to achieve confluent monolayers.
Sulphonamide NEs cytotoxicity was performed using tetrazolium dye MTT colorimetric assay. RAW 264.7 macrophages were harvest after confluent monolayer achievement. The cells were washed twice with PBS and a cellular suspension of 10^6 cells/ml was prepared in fresh DMEM culture medium. Aliquots of 100 µl of the cellular suspension were placed into polystyrene 96-well plates, and then incubated at 37 °C in a 5% CO2 atmosphere for 6 h to allow for adherence of macrophages. After this period, the adherent cells were subjected to treatment with several concentrations of the sulphonamide NEs (1–128 µM), and then incubated for additional 48 h. […] Macrophage viability was determined after formazan crystals solubilisation with DMSO followed by the absorbance measurement at 570 nm using a SpectraMax M5 spectrophotometer (Molecular Devices, Los Angeles, CA). The 50% cytotoxic concentrations were calculated by regression analysis using Microsoft Excel 2013 software.

For series [1], the system named is L. amazonensis IFLA/BR/1967/PH8 promastigotes. Kind of series: Antileishmanial microdilution assay (resazurin), promastigotes. The class given is cell-based, Leishmania amazonensis. The method, then: (§2) Leishmania (infantum MHOM/BR/1974/PP75 and L. amazonensis IFLA/BR/1967/PH8 were donated by the Leishmania Type Culture Collection (LTCC) of Oswaldo Cruz Institute/Fiocruz (Rio de Janeiro, Brazil). […] The antileishmanial activity of the sulphonamide NEs was evaluated by the microdilution technique. […] L. amazonensis and L. infantum promastigote forms were harvest at late log phase of growth (96 h), washed twice with PBS and resuspended in fresh culture medium to a final concentration of 5 × 10^6 parasites/ml. […] The minimal inhibitory concentration (MIC) was determined as the lowest concentration capable of inhibiting in vitro growth of the parasites. […] The selective index (SI) for promastigote forms of L. amazonensis and L. infantum was calculated by the ratio between the CC50 for RAW 264.7 macrophages and the IC50 for the parasites.

Series [2] has as its system L. infantum MHOM/BR/1974/PP75 promastigotes. The series is described as above. The series is classed as cell-based, Leishmania infantum. The method, then: as §2
Details of series [3]: method as in PMID 25825339. The conditions noted are these: cited from earlier work.
A short description of series [4]: Dissolution of sulphonamides in clove oil. The series is classed as physicochemical. The conditions noted are these: concentration of 5 mg/ml. Here is the method: The oil-in-water (O/W) NEs were prepared by high-energy method using an ultrasound processor (Hielscher model UP100H, Hielscher GmbH, Berlin, Germany), according to the method descripted by Senna et al.[31]. Oil phase was prepared by sulphonamides dissolution in the clove oil. An amount of 5 mg of drug was weighted in a microtube and 1 ml of clove oil was added. The tube was agitated for 1 min for obtaining of the drug solution (5 mg/ml). Aqueous phase was prepared by adding 1 g of Pluronic F127® in 8 g of water. Then 1 ml of oil phase (drug dissolved in clove oil) was added to 9 ml of aqueous phase (Pluronic F127 in water) under constant ultrasound homogenisation (amplitude 80%, continuous cycle no. 1) during 5 min in an ice bath at 5 °C to prevent heating of the dispersion. A transparent NE was obtained at a concentration of 500 µg/ml.
The NEs were produced with 10% of oil phase. NEs were prepared also without the drug in order to evaluate the stability, droplet size and PDI. […] Phase separation and precipitation of the drug were not observed, and the NE was considered stable in the concentration of up to 500 µg/ml.

[5] abbreviates: Leishmania amazonensis, L. amazonensis promastigotes, 120 h.
[6] abbreviates: Leishmania infantum, L. infantum promastigotes, 120 h.

On to `C[C@@H]1[C@H](O)[C@@H](C)/C=C/C=C/C=C/C=C/C=C/C=C/C=C/[C@H](O[C@@H]2O[C@H](C)[C@@H](O)[C@H](N)[C@@H]2O)C[C@@H]2O[C@](O)(C[C@@H](O)C[C@@H](O)[C@H](O)CC[C@@H](O)C[C@@H](O)CC(=O)O[C@H]1C)C[C@H](O)[C@H]2C(=O)O` [AMP, amphotericin B], for which, in the series on Human erythrocytes, the HC50 is given as 27.93 ± 1.71^b µM. For the same molecule, the hemolysis at 1 h, 2 µM in the series “Haemolytic assay” (2 µM) was 1.18 ± 0.31%. The hemolysis at 1 h, 4 µM in the series “Haemolytic assay” (4 µM) came out at 2.01 ± 0.02%. The hemolysis at 1 h, 8 µM in “Haemolytic assay” (8 µM) amounted to 2.09 ± 0.15%. Moreover, in the series “Haemolytic assay” (16 µM), the hemolysis at 1 h, 16 µM amounted to 20.8 ± 0.5%. Besides, the hemolysis at 1 h, 32 µM in “Haemolytic assay” (32 µM) was found to be 57.8 ± 6.7%. In addition, in the series “Haemolytic assay” (64 µM), the hemolysis at 1 h, 64 µM turned out to be 75.7 ± 5.24%. For the same molecule, in “Haemolytic assay” (128 µM), the hemolysis at 1 h, 128 µM amounted to 100%. The hemolysis at 1 h, 256 µM in the series “Haemolytic assay” (256 µM) is 100%. The IC50 was 0.214 ± 0.06 mg/L (≈ 0.232 µM) with L. donovani, 0.61 ± 0.01 µM in series [1] (setting [5]) and 0.67 ± 0.1 µM in series [2] (setting [6]). In addition, in the series “Cytotoxic assay (MTT)”, half-maximal cytotoxicity (CC50 at 48 h) was put at 1.07 ± 1.49 µM. For the same molecule, the “IS50 (selectivity index = CC50/IC50)” value in series [1] (CC50 RAW 264.7 / IC50 L. amazonensis) is recorded as 1.78 ± 0.01^b; in series [2] (CC50 RAW 264.7 / IC50 L. infantum), 1.59 ± 0.01^d. Besides, the 90% effect concentration (IC90) in series [1] (setting [5]) was 1.23 ± 0.23 µM; in series [2] (setting [6]), 1.01 ± 0.03 µM. Besides, the MIC in series [1] (Leishmania amazonensis, L. amazonensis promastigotes, 120 h, 26 °C, read-out: MIC (minimum inhibitory concentration)) is 4 µM (≈ 3.7 µg/mL); in series [2] (Leishmania infantum, L. infantum promastigotes, 120 h, 26 °C, read-out: MIC (minimum inhibitory concentration)), 4 µM (≈ 3.7 µg/mL). In addition, the haemotoxicity in series [3] was 69.8%.
Regarding `NS(=O)(=O)c1ccc(NC(=O)Cc2ccc(Cl)cc2)c(F)c1` [Sulphonamide 3F], the “Dissolution in clove oil” value in series [4] is on record as “easily dissolved”.
On the same count and under the same terms, the result for `NS(=O)(=O)c1ccc(NC(=O)Cc2ccccc2Br)c(F)c1` [Sulphonamide 3G] reads “easily dissolved”; that for `NS(=O)(=O)c1ccc(CCNC(=O)Cc2ccccc2Br)cc1` [Sulphonamide 3W], “easily dissolved”.
Same read-out and setting: the result for `NS(=O)(=O)c1nnc(NC(=O)Cc2ccc(Cl)cc2)s1` [Sulphonamide 5B] reads “easily dissolved”; that for `NS(=O)(=O)c1nnc(NC(=O)Cc2ccccc2Br)s1` [Sulphonamide 5C], “easily dissolved”.
For `COc1ccc(CC(=O)Nc2nnc(S(N)(=O)=O)s2)cc1` [Sulphonamide 5D], in series [4], the “Dissolution in clove oil” value is listed as “easily dissolved”.

By IC50 is commonly meant the midpoint of a concentration-inhibition curve. What is called CC50 is the concentration giving 50% cytotoxicity. Read a high CC50 as lower toxicity to the cells. What is called IC90 is the concentration at which the effect reaches the 90% level. A higher IC90 goes with weaker potency.
